Assays:
[1] = target: T1, Bombesin receptor subtype-3 (Homo sapiens) (UniProt P32247); experiment: Agonist activity at human BRS3 relative to [D-Tyr6,b-Ala11,Phe13,Nle14]-Bombesin; format: functional
T1 sequence (whole entry): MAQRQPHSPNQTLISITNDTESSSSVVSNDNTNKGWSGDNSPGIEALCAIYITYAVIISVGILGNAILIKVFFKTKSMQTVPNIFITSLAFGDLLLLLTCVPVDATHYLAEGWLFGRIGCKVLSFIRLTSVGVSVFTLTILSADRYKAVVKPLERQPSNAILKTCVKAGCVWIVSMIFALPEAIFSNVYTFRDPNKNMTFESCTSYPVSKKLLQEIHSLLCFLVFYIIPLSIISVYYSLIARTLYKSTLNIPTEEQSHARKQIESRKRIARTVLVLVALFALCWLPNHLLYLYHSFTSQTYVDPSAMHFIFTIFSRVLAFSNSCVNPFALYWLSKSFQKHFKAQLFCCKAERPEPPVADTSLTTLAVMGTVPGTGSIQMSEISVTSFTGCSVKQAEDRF

[2] = target: T2, Bombesin receptor subtype-3 (Homo sapiens, UniProt P32247); experiment: Binding affinity to human BRS3
T2 sequence (P32247 whole entry): T1 sequence (whole entry)

[3] = target: T2, Bombesin receptor subtype-3; experiment: Agonist activity at human BRS3; format: functional
[4] = target: T3, Bombesin receptor subtype-3 (Mus musculus, UniProt O54798); experiment: Agonist activity at mouse BRS3; format: functional
T3 sequence (O54798 whole entry): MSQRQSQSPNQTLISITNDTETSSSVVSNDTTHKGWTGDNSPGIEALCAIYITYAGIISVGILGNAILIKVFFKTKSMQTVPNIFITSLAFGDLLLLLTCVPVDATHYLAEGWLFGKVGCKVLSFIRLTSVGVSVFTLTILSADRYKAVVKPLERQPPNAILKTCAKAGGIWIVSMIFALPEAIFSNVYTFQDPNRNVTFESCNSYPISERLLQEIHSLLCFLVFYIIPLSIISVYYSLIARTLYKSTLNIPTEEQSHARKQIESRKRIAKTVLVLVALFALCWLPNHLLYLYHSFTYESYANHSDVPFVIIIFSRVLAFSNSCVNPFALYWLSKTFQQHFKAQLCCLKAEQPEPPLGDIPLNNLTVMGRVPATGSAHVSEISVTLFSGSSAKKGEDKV

[5] = target: T4, Bombesin receptor subtype-3 (Mus musculus) (UniProt O54798); experiment: Agonist activity at mouse BRS3 relative to [D-Tyr6,b-Ala11,Phe13,Nle14]-Bombesin; format: functional
T4 sequence (whole entry): T3 sequence (O54798 whole entry)

[6] = Total plasma concentration in rat at 1 mg/kg, iv after 1 hr; format: ADME, organism-based; parameters: dose 1 mg/kg, route intravenous
[7] = Drug level in rat brain at 1 mg/kg, iv after 1 hr; format: ADME, organism-based; parameters: dose 1 mg/kg, route intravenous; conditions: read-out: Drug uptake
[8] = Ratio of drug level in brain to plasma in rat at 1 mg/kg, iv after 1 hr; format: ADME, organism-based; parameters: dose 1 mg/kg, route intravenous
[9] = Total plasma concentration in rat at 2 mg/kg, iv after 1 hr; format: ADME, organism-based; parameters: dose 2 mg/kg, route intravenous
[10] = Drug level in rat brain at 2 mg/kg, iv after 1 hr; format: ADME, organism-based; parameters: dose 2 mg/kg, route intravenous; conditions: read-out: Drug uptake
[11] = Ratio of drug level in brain to plasma in rat at 2 mg/kg, iv after 1 hr; format: ADME, organism-based; parameters: dose 2 mg/kg, route intravenous
[12] = Oral bioavailability in rat; format: ADME, organism-based; conditions: in vivo

| Compound | Activity [1] [%] | IC50 [2] [nM] | EC50 [3] [nM] | EC50 [4] [nM] | Activity [5] [%] | further results |
| --- | --- | --- | --- | --- | --- | --- |
| c1ccc(-c2nnn[nH]2)c(-c2ccc(CCc3ncc(CC4CCCC4)[nH]3)cc2)c1 | – | 15 | 56 | 16 | – | – |
| CCC(C)(C)Cc1c[nH]c(CCc2ccc(-c3ccccc3OCc3nc(=O)[nH][nH]3)cc2)n1 | 107 | – | – | – | – | – |
| CCC(C)(C)Cc1cnc(CCc2ccc(N3CCCC[C@@H]3c3nnc[nH]3)cc2)[nH]1 | – | 26 | 42 | 13 | – | bioavailability [12]: 4.8% |
| CCC(C)(C)Cc1c[nH]c(CCc2ccc(-c3ccccc3OCc3nc(=S)[nH][nH]3)cc2)n1 | 114 | 6.1 | 41 | 5.8 | 120 | concentration at 1 h [6]: 4960 nM; concentration at 1 h [7]: 30 nM; Kp at 1 h [8]: 0.006 |
| CCC(C)(C)Cc1cnc(CCc2ccc(-c3ccccc3OCc3n[nH]c(=O)[nH]3)cc2)[nH]1 | – | 31 | 336 | – | – | – |
| CCC(C)(C)Cc1c[nH]c(CCc2ccc(N3CCCC[C@@H]3c3nnn[nH]3)cc2)n1 | 100 | 6.2 | 15 | 16 | 119 | bioavailability [12]: 4.9% |
| CCC(C)(C)Cc1c[nH]c(CCc2ccc3c(c2)CNC(=O)c2ccccc2-3)n1 | 98 | – | – | – | 118 | – |
| CCC(C)(C)Cc1c[nH]c(CCc2ccc(N3CCCC[C@@H]3c3ncn[nH]3)cc2)n1 | 96 | – | – | – | 117 | – |
| CCC(C)(C)Cc1cnc(CCc2ccc3c(c2)CN(C)C(=O)c2ccccc2-3)[nH]1 | – | 20 | 56 | 27 | – | – |
| CCC(C)(C)Cc1c[nH]c(CCc2ccc(-c3ccccc3OCc3cnn[nH]3)cc2)n1 | 97 | – | – | – | – | – |
| CCC(C)(C)Cc1c[nH]c(CCc2ccc(-c3ccccc3OCC(=O)O)cc2)n1 | 97 | – | – | – | – | – |

The next lines start with results.

| Activity [1] [%] | IC50 [2] [nM] | EC50 [3] [nM] | EC50 [4] [nM] | Activity [5] [%] | Compound | further results |
| --- | --- | --- | --- | --- | --- | --- |
| 113 | – | – | – | – | CCC(C)(C)Cc1c[nH]c(CCc2ccc(-c3ccccc3OCc3ncn[nH]3)cc2)n1 | – |
| 98 | 27 | 78 | 4.6 | 115 | CCC(C)(C)Cc1c[nH]c(CCc2ccc(-c3ccccc3OCc3nc(N)n[nH]3)cc2)n1 | concentration at 1 h [6]: 860 nM; concentration at 1 h [7]: 10 nM; Kp at 1 h [8]: 0.016 |
| 97 | 31 | 133 | 34 | 113 | CCC(C)(C)Cc1c[nH]c(CCc2ccc(-c3ccccc3O)cc2)n1 | – |
| 112 | – | – | – | 85 | c1ccc(-c2nnn[nH]2)c(-c2ccc(CCc3nc(CC4CCCC4)c[nH]3)cc2)c1 | – |
| – | 103 | 54 | – | – | CCC(C)(C)Cc1cnc(CCc2ccc(-c3ccccc3OCC(=O)O)cc2)[nH]1 | – |
| – | 10 | 29 | 11 | – | CCC(C)(C)Cc1cnc(CCc2ccc3c(c2)CNC(=O)c2ccccc2-3)[nH]1 | concentration at 1 h [6]: 310 nM; concentration at 1 h [7]: 20 nM; Kp at 1 h [8]: 0.068 |
| 111 | – | 30 | 2.9 | 109 | CCC(C)(C)Cc1c[nH]c(CCc2ccc(-c3ccccc3OCc3nnn[nH]3)cc2)n1 | concentration at 1 h [9]: 1250 nM; concentration at 1 h [10]: 10 nM; Kp at 1 h [11]: 0.01 |
| 89 | 127 | 129 | 12 | 122 | CCC(C)(C)Cc1c[nH]c(CCc2ccc(-c3ccccc3OCc3nc(C(F)(F)F)n[nH]3)cc2)n1 | – |
| – | 22 | 172 | – | – | CCC(C)(C)Cc1c[nH]c(CCc2ccc(-c3ccccc3OCc3nnc[nH]3)cc2)n1 | – |
| 96 | – | – | – | 119 | CCC(C)(C)Cc1c[nH]c(CCc2ccc3c(c2)CN(C)C(=O)c2ccccc2-3)n1 | – |
| 101 | – | 42 | 13 | 120 | CCC(C)(C)Cc1c[nH]c(CCc2ccc(N3CCCc4cn[nH]c43)cc2)n1 | bioavailability [12]: 29% |
| 94 | 287 | 1770 | – | – | O=C1NC(=O)C(c2ccccc2-c2ccc(CCC3N=CC(CC4CCCC4)=N3)cc2)S1 (stereo unspecified) | – |
| 100 | 5.3 | 24 | 12 | 111 | CCC(C)(C)Cc1c[nH]c(CCc2ccc(N3CCCC[C@@H]3C(=O)O)cc2)n1 | concentration at 1 h [6]: 210 nM; concentration at 1 h [7]: 10 nM; Kp at 1 h [8]: 0.04 |
| – | 83 | 399 | – | – | CCC(C)(C)Cc1cnc(CCc2ccc(-c3ccccc3OCc3cnn[nH]3)cc2)[nH]1 | – |
